Measured values reported in PMC12257397, “Scaffold Hopping Strategy toward New 4‑Aminoquinazolines Active Against Extracellular and Intracellular Mycobacterium tuberculosis” (ACS Medicinal Chemistry Letters, 2025).
Converted amounts (≈) assume the structure as drawn. Like-named read-outs stand apart in the source and are kept apart here.

What was measured:
[1] = test system: M. tuberculosis H37Rv (ATCC 27294); experiment: MIC by resazurin reduction microplate assay (REMA); assay type: cell-based; conditions: Mycobacterium tuberculosis, converted from μg/mL to μM
[2] = Microsomal stability, mouse liver microsomes (MLM); assay type: in vitro ADME; conditions: male, BALB/c, pH 7.4
Experimental: (§1) 1.5. Microsomal stability
(§2) Test compound (6 μM) was incubated at 37 °C with male BALB/c mouse liver microsomes or mixed gender human liver microsomes (Xenotech LLC; 0.5 mg /mL, […] potassium phosphate buﬀer, pH 7.4) and the reaclon started with addilon of excess NADPH (2 mM, pH 7.4). Samples (35 µL) were removed at lme 0, 5, 10, 20, 30, and 60 min and mixed with 35 µL of acetonitrile, methanol, wate r s o l u lon (2:1:1) containing […] internal standard terfenadine and 0.05% v/v acelc acid. The samples were centrifuged at 4000 rpm for 10 min and the supernatant was analyzed using a 1100 HPLC and Single Quad 6120 (Agilent, USA). Compounds were tested in duplic ate, and an exponenlal decay curve ﬁt was used on the ralo of peak area of test compound to internal standard at each lme point to calculate the rate constant (k). The rate of intrinsic clearance (CLint) of each test compound was then calculated using the following equalon: CLint (mL/min/mg) = k x V where V was mL/mg protein. Verapamil (6 μM) was used as a posilve control. Incubalon of each compound with microsomes in the absence of NADPH and analyzed at 0 and 60 min was used as the negalve control.
(§3) The human biological samples were sourced ethically, and their research use was in accord with the terms of the informed consents.

[3] = test system: H37Rv-LP (ATCC 25618) inside THP-1 cells; experiment: microbe, parasite or virus in culture; assay type: cell-based; conditions: Mycobacterium tuberculosis, 72 hours
[4] = test system: M. tuberculosis H37Rv-LP (ATCC 25618); experiment: microbe, parasite or virus in culture; assay type: cell-based; conditions: concentration inhibiting 90% of growth, 5 days, read-out: MIC parental wild-type strain H37Rv-LP
[5] = test system: Mycobacterium smegmatis mc2155; assay type: cell-based
in vitro [6] = conditions: human
[7] = test system: Mycobacterium avium 2285S (smooth); experiment: Antimicrobial spectrum MIC, M. avium smooth; assay type: cell-based
[8] = Microsomal stability, human liver microsomes (HLM); assay type: in vitro ADME; conditions: both sexes, pH 7.4
Experimental: as §1, §2, §3

[9] = test system: Mycobacterium abscessus 103R; experiment: Antimicrobial spectrum MIC, M. abscessus; assay type: cell-based
[10] = test system: Mycobacterium avium 2285R (rough); experiment: Antimicrobial spectrum MIC, M. avium rough; assay type: cell-based
[11] = test system: Staphylococcus aureus (ATCC 29213); experiment: Antimicrobial spectrum MIC, S. aureus; assay type: cell-based
Escherichia coli RFM 795 = experiment: Antimicrobial spectrum MIC, E. coli; assay type: cell-based; conditions: Escherichia coli RFM 795 (lptD mutation)
in vitro [12] = conditions: human; remark: listed apart in the source
in vitro [13] = conditions: human; remark: listed apart in the source
[14] = Mycobacterium tuberculosis, 120 h

COc1ccc2nc(C)nc(NCCCc3ccccc3)c2c1 [18b]
MIC [1]: 4.1 µM (≈ 1.26 µg/mL) | microsomal CLint at 6 μM ([2]; mouse, microsomes): 530 µL/min/mg | remaining at 10 min, 6 μM ([2]; mouse, microsomes): 7% | half-life at 6 μM ([2]; mouse liver microsomes, read-out: MLM t1/2): 2.6 min | IC50 ([3]; growth of H37Rv-LP inside THP-1 cells inhibited by 50%, read-out: Intracellular IC50): 840 nM | IC90 ([3]; growth of H37Rv-LP inside THP-1 cells inhibited by 90%, read-out: Intracellular IC90): 1900 nM | MIC [4, 14]: 1.5 µM (≈ 0.461 µg/mL) | CIM mc2155 [5]: > 32.5 µM | CC50 at 72 h (in vitro [6]): 17 µM | CIM 2285S [7]: > 100 µM | microsomal CLint at 6 μM ([8]; human, microsomes): 252 µL/min/mg | remaining at 20 min, 6 μM ([8]; human, microsomes): 8% | half-life at 6 μM ([8]; human liver microsomes, read-out: HLM t1/2): 5.5 min | CIM 103R [9]: > 100 µM | CIM 2285R [10]: > 100 µM | CIM 29213 [11]: > 100 µM | CIM RFM 795 (Escherichia coli RFM 795): 54 µM | CC50 at 72 h (in vitro [12]): > 20 µM | CC50 at 72 h (in vitro [13]; CC50 HepG2+Gal): 11 µM | CC50 at 72 h (in vitro [13]; CC50 HepG2+Glu): 13.9 µM

CCc1ccc(CCNc2nc(C)nc3ccccc23)cc1 [16a]
MIC [1]: 17.2 µM (≈ 5.01 µg/mL)

Cc1nc(NCCc2ccc(Cl)cc2)c2cc(I)ccc2n1 [11d]
MIC [1]: 0.73 µM (≈ 0.309 µg/mL) | MIC [4, 14]: 0.84 µM (≈ 0.356 µg/mL) | CC50 at 72 h (in vitro [13]; CC50 HepG2+Gal): 3.3 µM | CC50 at 72 h (in vitro [13]; CC50 HepG2+Glu): 4.2 µM

COc1ccc(CCNc2ncnc3ccccc23)cc1 [10e]
MIC [1]: 71.6 µM (≈ 20 µg/mL)

Cc1ccc(CCNc2nc(C)nc3ccc(I)cc23)cc1 [15d]
MIC [1]: 3.1 µM (≈ 1.25 µg/mL) | MIC [4, 14]: 0.48 µM (≈ 0.194 µg/mL) | CC50 at 72 h (in vitro [6]): 10.6 µM | CC50 at 72 h (in vitro [12]): 10.2 µM | CC50 at 72 h (in vitro [13]; CC50 HepG2+Gal): 6.6 µM | CC50 at 72 h (in vitro [13]; CC50 HepG2+Glu): 11.4 µM

Cc1nc(NCCc2ccc(Cl)cc2)c2ccccc2n1 [11a]
MIC [1]: 16.8 µM (≈ 5 µg/mL)

FC(F)(F)Oc1ccc(CCNc2ncnc3ccccc23)cc1 [13e]
MIC [1]: 60 µM (≈ 20 µg/mL)

COc1ccc2nc(C)nc(NCCc3ccc4ccccc4c3)c2c1 [17b]
MIC [1]: 7.3 µM (≈ 2.51 µg/mL)

Cc1nc(NCC(c2ccccc2)c2ccccc2)c2cc(I)ccc2n1 [12d]
MIC [1]: > 21.5 µM

CC[C@H]1OC(=O)[C@H](C)[C@@H](O[C@H]2C[C@@](C)(OC)[C@@H](O)[C@H](C)O2)[C@H](C)[C@@H](O[C@@H]2O[C@H](C)C[C@H](N(C)C)[C@H]2O)[C@](C)(OC)C[C@@H](C)C(=O)[C@H](C)[C@@H](O)[C@]1(C)O [25 (CLA), Clarithromycin, reference compound]
CIM 2285S [7]: 0.4 µM | CIM 103R [9]: 0.5 µM | CIM 2285R [10]: 1.4 µM

COc1ccc2nc(C)nc(NCCc3ccc(Cl)cc3)c2c1 [11b]
MIC [1]: 30.5 µM (≈ 10 µg/mL)

Cc1nc(NCCc2ccc(OC(F)(F)F)cc2)c2ccccc2n1 [13a]
MIC [1]: 7.2 µM (≈ 2.5 µg/mL)

Cc1nc(NCCc2ccc(Cl)cc2)c2cc(Br)ccc2n1 [11c]
MIC [1]: 13.3 µM (≈ 5.01 µg/mL)

CN[C@@H]1C[C@H]2O[C@@](C)([C@@H]1OC)n1c3ccccc3c3c4c(c5c6ccccc6n2c5c31)C(=O)NC4 [21 (STA), staurosporine, reference compound]
CC50 (in vitro [13]; CC50 HepG2+Gal): 40 nM | CC50 (in vitro [13]; CC50 HepG2+Glu): 30 nM

CN[C@H](CC(C)C)C(=O)N[C@H]1C(=O)N[C@@H](CC(N)=O)C(=O)N[C@H]2C(=O)N[C@H]3C(=O)N[C@H](C(=O)N[C@H](C(=O)O)c4cc(O)cc(O)c4-c4cc3ccc4O)[C@H](O)c3ccc(c(Cl)c3)Oc3cc2cc(c3O[C@@H]2O[C@H](CO)[C@@H](O)[C@H](O)[C@H]2O[C@H]2C[C@](C)(N)[C@H](O)[C@H](C)O2)Oc2ccc(cc2Cl)[C@H]1O [26 (VAN), Vancomycin, reference compound]
CIM 29213 [11]: 2.9 µM

Cc1nc(NCCCc2ccccc2)c2ccccc2n1 [18a]
MIC [1]: 4.5 µM (≈ 1.25 µg/mL) | MIC [4, 14]: 1.6 µM (≈ 0.444 µg/mL) | MIC [4]: 1.6 µM (≈ 0.444 µg/mL) | CC50 at 72 h (in vitro [13]; CC50 HepG2+Gal): 2.6 µM | CC50 at 72 h (in vitro [13]; CC50 HepG2+Glu): 7.7 µM

Cc1ccc(CCNc2nc(C)nc3ccccc23)cc1 [15a]
MIC [1]: 18 µM (≈ 4.99 µg/mL)

Clc1ccc(CCNc2ncnc3ccccc23)cc1 [11e]
MIC [1]: > 35.2 µM

COc1ccc(CCNc2nc(C)nc3ccc(OC)cc23)cc1 [10b]
MIC [1]: 30.9 µM (≈ 9.99 µg/mL)

c1ccc(C(CNc2ncnc3ccccc23)c2ccccc2)cc1 [12e]
MIC [1]: > 30.7 µM

COc1ccc2nc(C)nc(NCCc3ccc(C)cc3)c2c1 [15b]
MIC [1]: 16.3 µM (≈ 5.01 µg/mL)

c1ccc2cc(CCNc3ncnc4ccccc34)ccc2c1 [17e]
MIC [1]: > 16.7 µM

Cc1ccc(CCNc2nc(C)nc3ccc(Br)cc23)cc1 [15c]
MIC [1]: 7 µM (≈ 2.49 µg/mL)

Cc1nc(NCCc2ccccc2)c2ccccc2n1 [9a]
MIC [1]: 38 µM (≈ 10 µg/mL)

CCc1ccc(CCNc2ncnc3ccccc23)cc1 [16e]
MIC [1]: 36 µM (≈ 9.99 µg/mL)

Cc1nc(NCCc2ccccc2)c2cc(Br)ccc2n1 [9c]
MIC [1]: 7.3 µM (≈ 2.5 µg/mL)
